What was measured:
[1] = target: T1, human serum albumin (HSA) (Homo sapiens, UniProt P02768); assay: Spectrofluorimetric titration, HSA fluorescence quenching; format: binding; conditions: for KSV (Stern–Volmer quenching constant) / kq (quenching rate constant): PBS, 2.0 µM HSA; for ΔH° of HSA binding / ΔS° of HSA binding: van't Hoff, 296–310 K
T1 construct: purchased Sigma-Aldrich
Procedure: The fluorescence spectroscopy method was used to examine the possible binding ways of human serum albumin (HSA) with the investigated compounds. […] The fluorescence of HSA was recorded at an excitation wavelength of 290 nm, while the recording range was set at 300–500 nm. The gradual decrease in the maximum emission intensity of the HSA with an increasing concentration of all investigated compounds was monitored at about 330 nm.
Fluorescence quenching parameters were determined using the Stern–Volmer equation (Equation (2)):(2) I0/I=1+kqτ0Q=1+KSVQ.
The notations in the previous equation include I0 and I as HSA fluorescence intensities in the absence and presence of the quencher, while KSV and kq are the Stern–Volmer quenching constant and the quenching rate constant of HSA, τ0 is the fluorophore lifetime of HSA (in the absence of the quencher), and [Q] is the concentration of the quencher. The binding constant (Kb) and the number of binding sites (n) were calculated using the Hill equation (Equation (3)):(3) logI0−I/I=logKb+nlogQ. where I0 and I represent the HSA fluorescence intensities in the absence and presence of the quencher, and [Q] is the concentration of the quencher.
The thermodynamic parameters ΔH°, ΔS°, and ΔG° were calculated using the following equations:(4) lnKb=−∆H^°/RT+∆S^°/R (5) ∆G^°=∆H^°−T∆S^°
To obtain information on the quenching, binding, and thermodynamic parameters for the interaction of the ligand and complex (CL and CC) towards human serum albumin (HSA), spectrofluorimetric investigations were carried out. All experiments were performed under physiological conditions in phosphate-buffered saline (PBS) and at different temperatures (296 K, 303 K, and 310 K).

[2] = test system: HeLa (human cervical adenocarcinoma cells); assay: MTT viability assay, 72 h; format: cell-based; conditions: mean ± SD of three experiments
Procedure: (§1) HeLa (human cervical adenocarcinoma cells), A2780 (human ovarian carcinoma cells), MCF7 (human breast adenocarcinoma cells), and HCT116 (human colorectal carcinoma cells) were purchased from American Type Culture Collection (ATCC, Rockville, MD, USA). HeLa, MCF-7, and HCT116 cells were cultivated in HEPES-buffered RPMI-1640, while A2780 cells were cultivated in DMEM. The media were supplemented with 10% heat-inactivated FBS and antibiotics (100 units/mL penicillin and 100 μg/mL streptomycin). The cells were grown at 37 °C in a humidified atmosphere with 5% CO2. For the viability assays, HeLa (3 × 10^3/well), A2780 (8 × 10^3/well), MCF7 (7 × 10^3/well), and HCT116 (6 × 10^3/well) cells were seeded in adherent flat-bottom 96-well plates. For the flow cytometric analyses, HeLa cells were seeded at 8 × 10^4 in 6-well plates.
(§2) The cells were treated with a range of CL, CC, and cisplatin concentrations for 72 h. At the end of the treatment, the cell viability was determined using MTT and crystal violet assays, as previously described. PECs were seeded at a density of 1.8 × 10^5 cells/well in 96-well plates, and two hours later, non-adherent cells were removed by washing the wells with PBS. The remaining adherent cells were treated the same way as the tumor cells. The PEC viability was estimated after 72 h of treatment using the CV assay only.

[3] = test system: A2780 (human ovarian carcinoma cells); assay: MTT viability assay, 72 h; format: cell-based; conditions: A2780, 72 h, mean ± SD
Procedure: as §1, §2

[4] = test system: MCF7 (human breast adenocarcinoma cells); assay: MTT viability assay, 72 h; format: cell-based; conditions: MCF7, 72 h, mean ± SD
Procedure: as §1, §2

[5] = test system: HCT116 (human colorectal carcinoma cells); assay: MTT viability assay, 72 h; format: cell-based; conditions: HCT-116, HCT116, 72 h, mean ± SD
Procedure: as §1, §2

[6] = test system: Peritoneal exudate cells (PECs); assay: Crystal violet (CV) viability assay on primary cells, 72 h; format: cell-based, C57BL/6 mice; conditions: mouse peritoneal exudate cells, read-out: IC50 PEC CV
Procedure: Peritoneal exudate cells (PECs) were isolated from the peritonea of 8–12-week-old C57BL/6 mice via a cavity rinse with ice-cold PBS. Cells were seeded in HEPES-buffered RPMI-1640 medium supplemented with 5% heat-inactivated FBS and antibiotics. The animals were from the animal facility of the Institute for Biological Research “Siniša Stanković” (IBISS) National Institute of the Republic of Serbia (Belgrade, Serbia). Animal handling was conducted and protocols were followed by the local Institutional Animal Care and Use Committee (IACUC) in accordance with local guidelines as well as European Community directives (EEC Directive of 1986; 86/609/EEC). The ethical approval number is 323-07-02147/2023-05.
as §2

[7] = test system: HeLa cells; assay: CFSE staining of cell proliferation, flow cytometry; format: cell-based, human; conditions: IC50 dose, 72 h
Procedure: To analyze the distribution of cells in the different phases of the cell cycle using flow cytometry, cells were collected at the end of the treatment and processed as previously described. To detect the presence of apoptotic cells, the treated HeLa cells were double-stained with Annexin V-FITC/PI in Annexin V-binding buffer according to the manufacturer’s instructions. For caspase activation, cells were incubated with FITC-labeled pan-caspase inhibitor ApoStat (0.5 μg/mL) for 30 min at 37 °C. The cells were then washed, resuspended in PBS, and analyzed using flow cytometry. The effect of the compounds on cell proliferation was analyzed via CFSE staining using flow cytometry in the same manner as previously described. DAF-FM was used to determine the intracellular production of nitric oxide in the treated HeLa cells, DHE was used to detect intracellular superoxide and hydrogen peroxide, and DHR123 was used to detect the cumulative intracellular production of reactive oxygen species and nitrogen species. These assays were performed as described in previously published studies. All flow cytometry data were obtained in a CytoFLEX cytometer (Beckman Coulter, Brea, CA, USA) and analyzed using FlowJo software v10 (Tree Star, Ashland, OR, USA).

[8] = test system: HeLa (human cervical adenocarcinoma cells); assay: Crystal violet (CV) viability assay, 72 h; format: cell-based
Procedure: as §1, §2

[9] = test system: A2780 (human ovarian carcinoma cells); assay: Crystal violet (CV) viability assay, 72 h; format: cell-based; conditions: A2780, 72 h, mean ± SD
Procedure: as §1, §2

[10] = test system: MCF7 (human breast adenocarcinoma cells); assay: Crystal violet (CV) viability assay, 72 h; format: cell-based; conditions: MCF7, 72 h, mean ± SD
Procedure: as §1, §2

[11] = test system: HCT116 (human colorectal carcinoma cells); assay: Crystal violet (CV) viability assay, 72 h; format: cell-based; conditions: HCT-116, HCT116, 72 h, mean ± SD
Procedure: as §1, §2

T1 sequence (P02768 25-609): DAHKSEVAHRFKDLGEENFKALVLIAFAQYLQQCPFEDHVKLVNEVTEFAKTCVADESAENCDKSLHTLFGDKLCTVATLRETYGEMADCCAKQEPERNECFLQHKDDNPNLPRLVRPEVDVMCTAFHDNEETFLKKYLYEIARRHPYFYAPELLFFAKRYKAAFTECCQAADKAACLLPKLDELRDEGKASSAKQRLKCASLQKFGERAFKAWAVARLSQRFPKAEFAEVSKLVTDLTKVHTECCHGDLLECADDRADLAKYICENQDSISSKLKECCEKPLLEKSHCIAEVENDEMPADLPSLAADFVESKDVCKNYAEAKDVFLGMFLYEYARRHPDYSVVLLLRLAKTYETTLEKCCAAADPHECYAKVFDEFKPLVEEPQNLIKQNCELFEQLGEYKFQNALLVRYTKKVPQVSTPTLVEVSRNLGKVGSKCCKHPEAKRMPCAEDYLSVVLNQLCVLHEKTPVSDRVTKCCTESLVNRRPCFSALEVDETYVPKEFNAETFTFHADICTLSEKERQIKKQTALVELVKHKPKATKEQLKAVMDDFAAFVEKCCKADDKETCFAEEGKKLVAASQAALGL

| SMILES | n (HSA), number of binding sites ([1]; 296 K) | ΔG° of HSA binding ([1]; 296 K) | KSV (Stern–Volmer quenching constant) ([1]; 296 K) | kq (quenching rate constant) ([1]; 296 K) | n (HSA), number of binding sites ([1]; 303 K) | ΔG° of HSA binding ([1]; 303 K) | KSV (Stern–Volmer quenching constant) ([1]; 303 K) | kq (quenching rate constant) ([1]; 303 K) | n (HSA), number of binding sites ([1]; 310 K) | ΔG° of HSA binding ([1]; 310 K) | KSV (Stern–Volmer quenching constant) ([1]; 310 K) | kq (quenching rate constant) ([1]; 310 K) | ΔH° of HSA binding [1] | ΔS° of HSA binding [1] | IC50 [6] | effect on proliferation of HeLa cells (CFSE) [7] | further results |
| --- | --- | --- | --- | --- | --- | --- | --- | --- | --- | --- | --- | --- | --- | --- | --- | --- | --- |
| COc1cc(N/C(C)=C2/C(=O)Oc3cc(OC(C)=O)ccc3C2=O)ccc1O [CL, (E)-3-(1-((4-hydroxy-3-methoxyphenyl)amino)ethylidene)-2,4-dioxochroman-7-yl acetate] | 0.66 | -4.515 kcal/mol | 95600 M⁻¹ | 9.56e+12 M⁻¹ s⁻¹ | 0.71 | -5.533 kcal/mol | 76900 M⁻¹ | 7.69e+12 M⁻¹ s⁻¹ | 1.09 | -6.551 kcal/mol | 72700 M⁻¹ | 7.27e+12 M⁻¹ s⁻¹ | 38.535 kcal/mol | 608.51 J mol^−1K^−1 | 96.3 µM | does not inhibit the proliferation of HeLa cells | IC50 [2]: 11.1 ± 0.4 µM; IC50 [3]: 21.1 ± 1.4 µM; IC50 [4]: 45.6 ± 3.5 µM; IC50 [5]: 54.4 ± 4.3 µM; IC50 ([8]; CV assay, mean ± SD of three experiments, read-out: IC50 HeLa CV): 17.7 ± 1.2 µM; IC50 ([8]; rounded IC50 used as treatment dose, assay not stated (matches CV), read-out: IC50 values on HeLa cells as used for flow cytometry treatment): 17 µM; IC50 [9]: 24.1 ± 1.4 µM; IC50 [10]: 44 ± 1.7 µM; IC50 [11]: 60.2 ± 3.8 µM |
| COc1cc([N+]2=C(C)c3c(c4ccc(OC(C)=O)cc4oc3=O)[O][Pd-2]23[O]c2c(c(=O)oc4cc(OC(C)=O)ccc24)C(C)=[N+]3c2ccc(O)c(OC)c2)ccc1O [CC, Bis-3-(1-((4-hydroxy-3-methoxyphenyl)amino)ethylidene)-2,4-dioxochroman-7-yl acetate palladium(II) complex] | 1.07 | -7.921 kcal/mol | 295000 M⁻¹ | 2.95e+13 M⁻¹ | 1.06 | -7.99 kcal/mol | 272000 M⁻¹ | 2.72e+13 M⁻¹ s⁻¹ | 1.10 | -8.059 kcal/mol | 280000 M⁻¹ | 2.8e+13 M⁻¹ s⁻¹ | -5.014 kcal/mol | −41.09 J mol^−1K^−1 | 92.9 µM | does not inhibit the proliferation of HeLa cells | – |
